Measurements as given in US20240115557A1, “INHIBITORS OF RNA-GUIDED NUCLEASES AND USES THEREOF” (The Brigham and Women's Hospital, Inc., priority 2022, published 2024).

Molecular target: T1, SaCas9 (Staphylococcus aureus, UniProt J7RUA5)
T1 sequence (J7RUA5 1-1053): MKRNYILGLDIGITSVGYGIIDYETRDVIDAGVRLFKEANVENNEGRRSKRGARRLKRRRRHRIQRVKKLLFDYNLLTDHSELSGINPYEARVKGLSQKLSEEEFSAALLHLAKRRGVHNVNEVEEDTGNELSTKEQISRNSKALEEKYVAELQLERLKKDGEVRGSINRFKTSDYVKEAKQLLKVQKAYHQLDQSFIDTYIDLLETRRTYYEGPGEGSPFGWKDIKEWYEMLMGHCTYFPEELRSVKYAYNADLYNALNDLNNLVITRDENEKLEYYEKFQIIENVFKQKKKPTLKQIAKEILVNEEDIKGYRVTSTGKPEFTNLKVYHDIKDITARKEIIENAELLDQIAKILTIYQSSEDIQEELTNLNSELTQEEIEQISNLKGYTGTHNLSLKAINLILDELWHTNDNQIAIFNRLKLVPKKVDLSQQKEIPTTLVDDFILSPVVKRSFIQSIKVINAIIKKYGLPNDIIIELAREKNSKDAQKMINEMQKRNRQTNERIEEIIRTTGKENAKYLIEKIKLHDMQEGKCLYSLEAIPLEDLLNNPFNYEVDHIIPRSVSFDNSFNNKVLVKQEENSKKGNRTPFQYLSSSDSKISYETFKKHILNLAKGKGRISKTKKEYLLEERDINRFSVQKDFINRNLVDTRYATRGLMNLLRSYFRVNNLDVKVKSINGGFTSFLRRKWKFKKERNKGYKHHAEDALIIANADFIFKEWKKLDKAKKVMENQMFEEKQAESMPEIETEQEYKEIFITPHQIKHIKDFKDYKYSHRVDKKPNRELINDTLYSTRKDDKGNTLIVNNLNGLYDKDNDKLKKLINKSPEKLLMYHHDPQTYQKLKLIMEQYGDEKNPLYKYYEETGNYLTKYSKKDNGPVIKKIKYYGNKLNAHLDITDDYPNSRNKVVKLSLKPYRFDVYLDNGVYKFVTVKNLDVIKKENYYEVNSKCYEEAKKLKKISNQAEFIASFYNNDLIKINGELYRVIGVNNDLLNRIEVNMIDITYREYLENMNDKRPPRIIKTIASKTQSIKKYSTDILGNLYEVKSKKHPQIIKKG
Experiment: eGFP secondary assay, SaCas9
Type: cell-based
Conditions: for Z score Avg Z: average of two replicates, Zscore>3 selected as hit; for Normalized Inhibition Rep 1: replicate 1; for Normalized eGFP Disruption Rep 1: replicate 1, % eGFP disruption; for Z score Rep1: replicate 1, Zscore>3 selected as hit; for Normalized Inhibition Rep 2: replicate 2; for Normalized eGFP Disruption Rep 2: replicate 2, % eGFP disruption; for Z score Rep 2: replicate 2, Zscore>3 selected as hit
Procedure: All hit compounds were moved forward into the secondary and tertiary screens, in which they were tested in cell-based assays. An eGFP assay is used to determine hits in cells as the secondary screen (eGFP assay).
The eGFP secondary assay evaluated the hits identified from the primary screen. The compounds were judged off the % eGFP disruption to determine the Cas9 inhibition and the assay Zscore. […] The hits from the secondary screens will be processed through tertiary screens of dose studies and HiBit Assay as detailed herein.

SMILES	Z score Avg Z	Normalized Inhibition Rep 1	Normalized eGFP Disruption Rep 1	Z score Rep1	Normalized Inhibition Rep 2	Normalized eGFP Disruption Rep 2	Z score Rep 2
Cc1cccc(NC(=O)c2cc3c(=O)n4ccccc4nc3s2)c1 [C243-0026]	3.100	30.470	69.530	3.063	40.519	59.481	3.136
CCOc1ccc(NC(=O)c2cc(=O)c3cc(CC)ccc3o2)c2cccnc12 [Compound D656-0061]	3.973	7.616	92.384	1.153	56.899	43.101	6.794
CCCCn1nnnc1NCc1ccc2c(c1)n(C)c(=O)n2C [Compound D664-0047]	4.425	21.201	78.799	3.210	47.229	52.771	5.639
Fc1cccc(-c2nnc3sc(-c4c[nH]c5ccccc45)nn23)c1 [Compound D727-0772]	3.957	42.243	57.757	6.397	12.707	87.293	1.517
Cc1ccc(-n2ncc(C(=O)Nc3ccc(Br)cc3)c2C2CCNCC2)cc1 [Compound E922-0258]	7.627	63.301	36.699	7.494	59.004	40.996	7.761
CCCCN(CC)C(=O)C1CCCN(c2ccc(-c3ccccc3)nn2)C1 (stereo not shown) [Compound F305-0030]	4.852	42.608	57.392	5.044	35.423	64.577	4.659
Cc1nc(Nc2ccc(N3CCOCC3)cc2)cc(-c2ccccc2)n1 [D278-0547]	4.467	55.528	44.472	5.583	43.307	56.693	3.352
Cc1ccccc1CC(=O)N1CCCC(c2nc(O)c3nnn(Cc4ccc(F)cc4)c3n2)C1 (stereo not shown) [D297-0031]	3.488	35.959	64.041	3.615	43.425	56.575	3.361
Cc1cc(=O)c2cc(C(=O)Nc3ccc(F)cc3)ccc2[nH]1 [D421-0876]	3.719	37.535	62.465	3.774	47.343	52.657	3.664
Cc1nc2nc(N(CCOc3ccccc3)S(=O)(=O)c3ccccc3)nn2c(C)c1Cl [D513-3628]	5.173	51.726	48.274	5.201	66.480	33.520	5.145
Cc1ccc(C)c(Nc2nc(C(N)=O)c(NC(=O)c3ccc(C)nc3Cl)s2)c1 [D686-0195]	6.110	29.879	70.121	4.525	64.458	35.542	7.696
O=c1oc2c(O)c(O)ccc2c2c1CCCC2 [D715-2438]	3.681	17.908	82.092	2.712	38.947	61.053	4.650
COc1ccccc1-c1nn2c(-c3cccnc3)nnc2s1 [D727-0059]	3.290	17.227	82.773	2.609	33.253	66.747	3.970
Cc1cc(-c2nn3c(-c4cccc(F)c4)nnc3s2)c2ccccc2n1 [D727-0417]	3.995	33.326	66.674	5.046	24.659	75.341	2.944
Cc1nn(-c2ccccc2)c(C)c1CCc1nnc2sc(-c3ccc(N(C)C)cc3)nn12 [D727-0717]	6.053	33.284	66.716	5.040	59.171	40.829	7.065
CC(C)Cc1nnc2sc(-c3c[nH]c4ccccc34)nn12 [D727-0768]	4.634	20.049	79.951	3.036	52.187	47.813	6.231
COc1cccc(N2C(=O)c3cc4ccccc4n3CC2(C)C(=O)NC2CCCCC2)c1 (stereo not shown) [E234-0006]	5.194	57.048	42.952	6.753	27.639	72.361	3.635
CC1(C(=O)NC2CCCCC2)Cn2c(cc3ccccc32)C(=O)N1Cc1ccccc1 (stereo not shown) [E234-0008]	5.237	50.589	49.411	5.989	34.101	65.899	4.485
COc1ccc(N2C(=O)c3cc4ccccc4n3CC2(C)C(=O)NC2CCCCC2)c(OC)c1 (stereo not shown) [E234-0018]	3.770	38.606	61.394	4.570	22.579	77.421	2.970
CC(=O)Nc1ccc(C(=O)Nc2ccc(CCc3nc4ccccc4n3-c3ccccc3)cc2)cc1 [F255-0057]	5.773	46.812	53.188	5.542	45.641	54.359	6.003
CCCN(CCC)C(=O)C1CCCN(c2ccc(-c3ccccc3)nn2)C1 (stereo not shown) [F305-0061]	5.220	39.473	60.527	4.673	43.845	56.155	5.767
O=C1c2ccccc2C(=O)c2oc(-c3ccc(F)cc3)nc21 [T0502-0200]	3.138	35.091	64.909	3.528	35.519	64.481	2.749
